This note sets out measurements from patent publication US9358262B2, “Use of antioxidant-enriched fermented blueberry extracts in the treatment of diabetes” (priority 2003, dated 2016).

Entries after “also recorded” stand apart in the source; their conditions may differ.

Experiment [1] deals with TNF-α production in LPS/IFN-γ-activated RAW 264.7 gamma NO(−) macrophages. Put plainly: TNF-α quantification (ELISA) in supernatants of activated macrophages. The class given is cell-based, mouse. The note with it: for TNF-α: LPS/IFN-γ control = 100; for Effect on TNF-α production, in words: over the tested concentrations. As for the experimental part: Cell culture. The mouse monocyte/macrophage cell line RAW 264.7 gamma NO(−) [American Type Culture Collection (ATCC)] was cultured in RPMI-1640 supplemented with 10% (v/v) heat-inactivated FBS, streptomycin ([…]) and penicillin (100 units/ml). All cultures were incubated at 37° C. in a humidified atmosphere with 5% CO2. Cell number was assessed by trypan blue dye exclusion on a Neubauer hemacytometer. Cells were grown to 90% confluence in sterile cell culture flasks and gently detached using a scraper (Fisher Scientific). For phenolic compound treatment tests, cells were cultured in triplicate in Costar flat-bottom cell culture plates (Corning Inc.). Cells were plated at a density of 6×10^5 cells/well in 24-well cell culture plates and grown for 1 h to allow them to attach to the plate. Compounds to be tested were initially dissolved in 10 μl of DMSO, and then RPMI was added to make solutions in a series of concentrations with a dilution factor of 2. […] For berry juices, the final concentrations were 16, 31, 63, 125, 250 and 500 μM GAE, respectively. Cells were supplemented with the test compounds for 1 h before stimulation with 10 ng/ml lipopolysaccharide (LPS) and 10-50 units/ml interferon gamma (IFN-γ). The activated cells were incubated for 24 h and then supernatants were collected to determine nitrite concentration and/or stored at −80° C. for further use. Control cells were grown under identical conditions but were not exposed to the test compounds or LPS/IFN-γ.
Tumour necrosis factor alpha (TNF-α) Quantification. TNF-α in cell supernatants was determined by using an OptELISA set mouse TNF-α (mono/poly) from BD PharMingen. The enzyme-linked immunosorbent assay (ELISA) was carried out as specified by the manufacturer.
In general terms: In an ELISA, binding on a coated surface is turned into a signal by an enzyme label.

Experiment [2] concerns LPS/IFN-γ-activated RAW 264.7 gamma NO(−) macrophages. As to the kind of experiment: Inhibition of nitric oxide production (nitrite, Griess reaction) in activated macrophages. The class given is cell-based, mouse. The note with it: for Nitrite: 24 h after LPS/IFN-γ; for inhibition at 63 µM: RAW264.7, 63 μM (μM GAE for juices); for inhibition at 125 µM: RAW264.7, 125 μM (μM GAE for juices); for inhibition at 250 µM: RAW264.7, 250 μM (μM GAE for juices); for inhibition at 500 µM: RAW264.7, 500 μM (μM GAE for juices); for Effect on NO production, in words: over the tested concentrations. As to the method: Cell culture. The mouse monocyte/macrophage cell line RAW 264.7 gamma NO(−) [American Type Culture Collection (ATCC)] was cultured in RPMI-1640 supplemented with 10% (v/v) heat-inactivated FBS, streptomycin ([…]) and penicillin (100 units/ml). All cultures were incubated at 37° C. in a humidified atmosphere with 5% CO2. Cell number was assessed by trypan blue dye exclusion on a Neubauer hemacytometer. Cells were grown to 90% confluence in sterile cell culture flasks and gently detached using a scraper (Fisher Scientific). For phenolic compound treatment tests, cells were cultured in triplicate in Costar flat-bottom cell culture plates (Corning Inc.). Cells were plated at a density of 6×10^5 cells/well in 24-well cell culture plates and grown for 1 h to allow them to attach to the plate. Compounds to be tested were initially dissolved in 10 μl of DMSO, and then RPMI was added to make solutions in a series of concentrations with a dilution factor of 2. The final concentrations of test compound that cells received were 16, 31, 63, 125, 250, and 500 μM, respectively. For berry juices, the final concentrations were 16, 31, 63, 125, 250 and 500 μM GAE, respectively. Cells were supplemented with the test compounds for 1 h before stimulation with 10 ng/ml lipopolysaccharide (LPS) and 10-50 units/ml interferon gamma (IFN-γ). The activated cells were incubated for 24 h and then supernatants were collected to determine nitrite concentration and/or stored at −80° C. for further use. Control cells were grown under identical conditions but were not exposed to the test compounds or LPS/IFN-γ.
Nitric Oxide (NO) Determination. Nitrite concentration was used as an indication of NO production. The procedure for NO determination was based on the Griess reaction. The assay was assessed as in the methods of Wang and Mazza (2002a, 2002b) for cell supernatants supplemented with phenolic compounds or berry juices. In brief, 100 μL of cell culture supernatant or sodium nitrite standard was mixed with an equal volume of Griess reagent [a mixture of 0.1% (w/v) N-(1-naphthyl)-ethylenediamine dihydrochloride and 1% (w/v) sulfanilamide in 5% (v/v) phosphoric acid, the two parts being mixed together within 1 h of use] using a 96-well plate. A set of parallel analyses was also conducted by applying only 100 μL of 2.5% (v/v) phosphoric acid instead of Griess reagent to each of 100 μL of cell supernatants or the mixture of standard sodium nitrite and cyanidin chloride. After 20 min at room temperature, the absorbance at 540 nm was measured using the microtitration reader. The net absorbance of the product of the Griess reaction was obtained by subtracting that of anthocyanins from the total. The absorbance was referred to a nitrite standard curve to determine the nitrite concentration in the supernatants.
Inhibition of Nitric Oxide Production. RAW 264.7 gamma NO(−) cell line was derived from the RAW 264.7 mouse monocyte/macrophage cell line. […] When LPS/IFN-γ was administered to RAW 264.7 gamma (NO−) macrophages, NO production, measured as nitrite, increased dramatically from the basal level of 0 to ≧30 μM after 24 h. To determine the effects of cranberry and blueberry juice and other phenolic compounds on NO production, different concentrations of these compounds (500, 250, 125, 63, and 16 μM) were incubated with the LPS/IFN-γ-activated macrophages (Table 7). Cell viability was assayed to exclude the possibility that the inhibitory effects of phenolic compounds were due to their cytotoxicity. The MTT assay was used for the colorless phenolic compound-treated macrophages, whereas the resazurin assay was used for cranberry and blueberry juice-treated macrophages. […]

The mark [3] stands for this setting: Mus musculus, read-out: Inhibitory effect (decrease of NO production).

Take `O=C(/C=C/c1ccc(O)c(O)c1)O[C@@H]1C[C@](O)(C(=O)O)C[C@@H](O)[C@H]1O` [Chlorogenic acid]: the TNF-α in experiment [1] (50 μM) is reported as 105.7 (8.4) %; in experiment [1] (200 μM) it was 99.2 (7.6) %; in experiment [1] (400 μM), 126 (31.1) %; in experiment [1] (500 μM) it was 115.6 (15.4) %. In addition, the “Effect on TNF-α production, in words” value in experiment [1] is listed as “may induce TNF-α production”. The Nitrite in experiment [2] (16 μM (μM GAE for juices)) is given as 37.1 (0.4) μM; in experiment [2] (31 μM (μM GAE for juices)) it was 39 (1) μM; in experiment [2] (63 μM (μM GAE for juices)), 40.4 (1.64) μM; in experiment [2] (125 μM (μM GAE for juices)), 41.7 (1.7) μM; in experiment [2] (250 μM (μM GAE for juices)), 47.6 (1.4) μM; in experiment [2] (500 μM (μM GAE for juices)), 46.6 (1.5) μM. Further, in experiment [2] (Mus musculus, RAW264.7, 16 μM (μM GAE for juices), read-out: Inhibitory effect (decrease of NO production)), the inhibition at 16 µM was -9.6%. Further, the inhibition at 31 µM in experiment [2] (Mus musculus, RAW264.7, 31 μM (μM GAE for juices), read-out: Inhibitory effect (decrease of NO production)) was -15.2%. The inhibition at 63 µM in experiment [2] (setting [3]) is -19.5%. Further, the inhibition at 125 µM in experiment [2] (setting [3]) was -23.4%. Further, the inhibition at 250 µM in experiment [2] (setting [3]) is -40.8%. Besides, the inhibition at 500 µM in experiment [2] (setting [3]) was -37.9%. The “Effect on NO production, in words” value in experiment [2] is on record as “showed no inhibitory effects; also recorded: induced production of NO”.
On to `O=C(O)c1cc(O)c(O)c(O)c1` [Gallic acid], for which the TNF-α in experiment [1] (50 μM) is reported as 103.4 (3.2) %; in experiment [1] (100 μM) it was 126.2 (11) %; in experiment [1] (200 μM) it was 160.3 (8.4) %; in experiment [1] (300 μM), 257.4 (36.7) %; in experiment [1] (400 μM), 213.9 (54.8) %; in experiment [1] (500 μM), 183.5 (19.8) %. In addition, the “Effect on TNF-α production, in words” value in experiment [1] was “may induce TNF-α production”. The Nitrite in experiment [2] (16 μM (μM GAE for juices)) is reported as 36.2 (3.7) μM; in experiment [2] (31 μM (μM GAE for juices)) it was 35.4 (2.9) μM; in experiment [2] (63 μM (μM GAE for juices)) it was 29.3 (0.3) μM; in experiment [2] (125 μM (μM GAE for juices)), 31.1 (5.9) μM; in experiment [2] (250 μM (μM GAE for juices)), 25.2 (1.5) μM; in experiment [2] (500 μM (μM GAE for juices)) it was 22.6 (0.6) μM. The “Inhibitory effect (decrease of NO production)” value in experiment [2] (500 μM (μM GAE for juices), 500 µM) is 30.9 (1.9) %. Further, the inhibition at 63 µM in experiment [2] (setting [3]) is 10.5%. Further, the inhibition at 125 µM in experiment [2] (setting [3]) was 19%. The inhibition at 250 µM in experiment [2] (setting [3]) was 23%. The inhibition at 500 µM in experiment [2] (setting [3]) came to 30%. In addition, in experiment [2], the “Effect on NO production, in words” value is “dose-dependent”.
